Measurements as given in PubChem BioAssay AID2060883 (Molecular Pharmacology Branch, DTP, NCI, 2025).

System: 843782-103-R-J1-PDC complex spheroid viability
Assay: Anticancer human tumor 843782-103-R-J1-PDC patient-derived lung adenocarcinoma cell line growth inhibition [RAS]
Conditions: for IC50: curve of first compound; for viability, T/C: stronger effect = lower value
Summary of the method: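 Tumour cells grown as complex spheroids with HUVEC endothelial cells and mesenchymal stem cells, treated with RAS pathway inhibitor combinations. Each agent spans half-log steps from near clinical Cmax, or 10 microM where Cmax is unknown.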

[1] = second compound 0.0316 µM, first compound 0.0316 µM
[2] = second compound 0.0316 µM, first compound 0.1 µM
[3] = second compound 0.0316 µM, first compound 0.316 µM
[4] = second compound 0.0316 µM, first compound 1 µM
[5] = second compound 0.0316 µM, first compound 3.16 µM
[6] = second compound 0.0316 µM, first compound 10 µM
[7] = second compound 0.1 µM, first compound 0.0316 µM
[8] = second compound 0.1 µM, first compound 0.1 µM
[9] = second compound 0.1 µM, first compound 0.316 µM
[10] = second compound 0.1 µM, first compound 1 µM
[11] = second compound 0.1 µM, first compound 3.16 µM
[12] = second compound 0.1 µM, first compound 10 µM
[13] = second compound 0.316 µM, first compound 0.0316 µM
[14] = second compound 0.316 µM, first compound 0.1 µM
[15] = second compound 0.316 µM, first compound 0.316 µM
[16] = second compound 0.316 µM, first compound 1 µM
[17] = second compound 0.316 µM, first compound 3.16 µM
[18] = second compound 0.316 µM, first compound 10 µM
[19] = second compound 1 µM, first compound 0.0316 µM
[20] = second compound 1 µM, first compound 0.1 µM
[21] = second compound 1 µM, first compound 0.316 µM
[22] = second compound 1 µM, first compound 1 µM
[23] = second compound 1 µM, first compound 3.16 µM
[24] = second compound 1 µM, first compound 10 µM
[25] = second compound 3.16 µM, first compound 0.0316 µM
[26] = second compound 3.16 µM, first compound 0.1 µM
[27] = second compound 3.16 µM, first compound 0.316 µM
[28] = second compound 3.16 µM, first compound 1 µM
[29] = second compound 3.16 µM, first compound 3.16 µM
[30] = second compound 3.16 µM, first compound 10 µM
[31] = second compound 10 µM, first compound 0.0316 µM
[32] = second compound 10 µM, first compound 0.1 µM
[33] = second compound 10 µM, first compound 0.316 µM
[34] = second compound 10 µM, first compound 1 µM
[35] = second compound 10 µM, first compound 3.16 µM
[36] = second compound 10 µM, first compound 10 µM
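Also: viability read after seven days of compound exposure.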

Q: With `Cc1nc(N2CCC3(CC2)COC(C)C3N)c(CO)nc1Sc1ccnc(N)c1Cl` (configuration not stated) + C#Cc1c(F)ccc2cc(O)cc(-c3ncc4c(N5CC6CCC(C5)N6)nc(OCC56CCCN5CC(F)C6)nc4c3F)c12 as the molecule, how does the IC50 (second compound 0.0316 µM) read?
A: Its IC50 is 8650 nM.

Q: What about the IC50 (second compound 0.1 µM) of the same molecule?
A: The IC50 was 5420 nM.

Q: And the IC50 (second compound 0.316 µM)?
A: The IC50 was 4690 nM.

Q: And the IC50 (second compound 1 µM)?
A: Its IC50 is 536 nM.

Q: What about the IC50 (second compound 3.16 µM) of the same molecule?
A: Its IC50 is 141 nM.

Q: And the IC50 (second compound 10 µM)?
A: Its IC50 is under 31.6 nM.

Q: And the viability, T/C [1]?
A: Its viability, T/C is 107%.

Q: And the viability, T/C [2]?
A: Its viability, T/C is 102%.

Q: And the viability, T/C [3]?
A: Its viability, T/C is 85.6%.

Q: What about the viability, T/C [4] of the same molecule?
A: Its viability, T/C is 77.2%.

Q: What about the viability, T/C [5] of the same molecule?
A: The viability, T/C was 68.2%.

Q: What about the viability, T/C [6] of the same molecule?
A: Its viability, T/C is 45.8%.

Q: And the viability, T/C [7]?
A: Its viability, T/C is 105%.

Q: What about the viability, T/C [8] of the same molecule?
A: Its viability, T/C is 98%.

Q: What about the viability, T/C [9] of the same molecule?
A: Its viability, T/C is 83.1%.

Q: What about the viability, T/C [10] of the same molecule?
A: Its viability, T/C is 72.6%.

Q: And the viability, T/C [11]?
A: Its viability, T/C is 54.3%.

Q: What about the viability, T/C [12] of the same molecule?
A: Its viability, T/C is 44%.

Q: And the viability, T/C [13]?
A: The viability, T/C was 100%.

Q: What about the viability, T/C [14] of the same molecule?
A: The viability, T/C was 91.4%.

Q: And the viability, T/C [15]?
A: Its viability, T/C is 79.5%.

Q: And the viability, T/C [16]?
A: The viability, T/C was 65.9%.

Q: What about the viability, T/C [17] of the same molecule?
A: The viability, T/C was 50.6%.

Q: What about the viability, T/C [18] of the same molecule?
A: The viability, T/C was 46.2%.

Q: And the viability, T/C [19]?
A: Its viability, T/C is 96%.

Q: What about the viability, T/C [20] of the same molecule?
A: The viability, T/C was 80.9%.

Q: What about the viability, T/C [21] of the same molecule?
A: The viability, T/C was 60%.

Q: What about the viability, T/C [22] of the same molecule?
A: The viability, T/C was 39.5%.

Q: And the viability, T/C [23]?
A: The viability, T/C was 29.6%.

Q: What about the viability, T/C [24] of the same molecule?
A: The viability, T/C was 32.1%.

Q: And the viability, T/C [25]?
A: The viability, T/C was 82.6%.

Q: And the viability, T/C [26]?
A: The viability, T/C was 54.5%.

Q: What about the viability, T/C [27] of the same molecule?
A: The viability, T/C was 39.4%.

Q: What about the viability, T/C [28] of the same molecule?
A: Its viability, T/C is 27.9%.

Q: What about the viability, T/C [29] of the same molecule?
A: Its viability, T/C is 27.4%.

Q: And the viability, T/C [30]?
A: Its viability, T/C is 23.4%.

Q: And the viability, T/C [31]?
A: Its viability, T/C is 49.2%.

Q: What about the viability, T/C [32] of the same molecule?
A: Its viability, T/C is 32.2%.

Q: And the viability, T/C [33]?
A: Its viability, T/C is 30.9%.

Q: What about the viability, T/C [34] of the same molecule?
A: The viability, T/C was 25.4%.

Q: And the viability, T/C [35]?
A: The viability, T/C was 21.6%.

Q: And the viability, T/C [36]?
A: The viability, T/C was 21.2%.

Q: With `Cc1nc(N2CCC3(CC2)COC(C)C3N)c(CO)nc1Sc1ccnc(N)c1Cl` (configuration not stated) as the molecule, how does the viability, T/C (compound 0.0316 µM) read?
A: The viability, T/C was 105% [middle of 4 runs].

Q: And the viability, T/C (compound 3.16 µM)?
A: Its viability, T/C is 64.6% [middle of 4 runs].

Q: And the viability, T/C (compound 10 µM)?
A: Its viability, T/C is 49% [middle of 4 runs].

Q: Which IC50 (second compound 0.0316 µM) does the source give for `CC(Nc1ccc2c(c1)OCCn1cc(N3C(=O)OCC3C(F)F)nc1-2)C(N)=O` (configuration not stated) + C#Cc1c(F)ccc2cc(O)cc(-c3ncc4c(N5CC6CCC(C5)N6)nc(OCC56CCCN5CC(F)C6)nc4c3F)c12 here?
A: The IC50 was 457 nM.

Q: And the IC50 (second compound 0.1 µM)?
A: The IC50 was 375 nM.

Q: What about the IC50 (second compound 0.316 µM) of the same molecule?
A: The IC50 was 297 nM.

Q: And the IC50 (second compound 1 µM)?
A: The IC50 was 174 nM.

Q: And the IC50 (second compound 3.16 µM)?
A: Its IC50 is 57.7 nM.

Q: And the IC50 (second compound 10 µM)?
A: Its IC50 is under 31.6 nM.

Q: And the viability, T/C [1]?
A: Its viability, T/C is 96.3%.

Q: What about the viability, T/C [2] of the same molecule?
A: Its viability, T/C is 73.7%.

Q: And the viability, T/C [3]?
A: Its viability, T/C is 59.3%.

Q: And the viability, T/C [4]?
A: Its viability, T/C is 35.5%.

Q: And the viability, T/C [5]?
A: Its viability, T/C is 24.5%.

Q: What about the viability, T/C [6] of the same molecule?
A: The viability, T/C was 16.1%.

Q: What about the viability, T/C [7] of the same molecule?
A: The viability, T/C was 96.4%.

Q: What about the viability, T/C [8] of the same molecule?
A: The viability, T/C was 76.6%.

Q: What about the viability, T/C [9] of the same molecule?
A: Its viability, T/C is 50%.

Q: And the viability, T/C [10]?
A: Its viability, T/C is 36.3%.

Q: And the viability, T/C [11]?
A: The viability, T/C was 22.8%.

Q: And the viability, T/C [12]?
A: The viability, T/C was 15%.

Q: And the viability, T/C [13]?
A: The viability, T/C was 91.2%.

Q: And the viability, T/C [14]?
A: The viability, T/C was 72.9%.

Q: What about the viability, T/C [15] of the same molecule?
A: The viability, T/C was 46.2%.

Q: And the viability, T/C [16]?
A: The viability, T/C was 32.6%.

Q: What about the viability, T/C [17] of the same molecule?
A: Its viability, T/C is 23.2%.

Q: And the viability, T/C [18]?
A: Its viability, T/C is 15%.

Q: And the viability, T/C [19]?
A: The viability, T/C was 89.9%.

Q: And the viability, T/C [20]?
A: Its viability, T/C is 59.5%.

Q: What about the viability, T/C [21] of the same molecule?
A: The viability, T/C was 39.6%.

Q: And the viability, T/C [22]?
A: Its viability, T/C is 25.1%.

Q: And the viability, T/C [23]?
A: Its viability, T/C is 20%.

Q: What about the viability, T/C [24] of the same molecule?
A: Its viability, T/C is 10.9%.

Q: What about the viability, T/C [25] of the same molecule?
A: Its viability, T/C is 63%.

Q: What about the viability, T/C [26] of the same molecule?
A: Its viability, T/C is 36.7%.

Q: And the viability, T/C [27]?
A: Its viability, T/C is 26.6%.

Q: And the viability, T/C [28]?
A: The viability, T/C was 18.2%.

Q: What about the viability, T/C [29] of the same molecule?
A: Its viability, T/C is 12.2%.

Q: And the viability, T/C [30]?
A: The viability, T/C was 8.25%.

Q: And the viability, T/C [31]?
A: Its viability, T/C is 41.2%.

Q: What about the viability, T/C [32] of the same molecule?
A: The viability, T/C was 22.2%.

Q: What about the viability, T/C [33] of the same molecule?
A: The viability, T/C was 21.3%.

Q: What about the viability, T/C [34] of the same molecule?
A: Its viability, T/C is 15.4%.

Q: What about the viability, T/C [35] of the same molecule?
A: The viability, T/C was 8.8%.

Q: And the viability, T/C [36]?
A: Its viability, T/C is 3.28%.
